# Assay results published in article PMC10380841, “Synthesis, Characterization and Cytotoxic Evaluation of New Pyrrolo[1,2-b]pyridazines Obtained via Mesoionic Oxazolo-Pyridazinones” (International Journal of Molecular Sciences, 2023).
# Entries after “also recorded” stand apart in the source; their conditions may differ. Read-outs that look alike come from different tables or passages of the source.
# Key:
# [1] = Daphnia magna toxicity assay; assay type: in vivo; conditions: Daphnia magna, in vivo; 48 h
# Method: (§1) Young organisms of Daphnia magna were selected according to their size from a parthenogenetic culture maintained in an artificial medium for 24 h before the bioassay. The determination was conducted in tissue culture plates with 12 wells (Greiner Bio-One, Monroe, NC, USA), with 10 organisms in each well, and a final volume of 3 mL per sample [65, 66]. As a negative control, DMSO was used at a concentration of 1%. All compounds were tested at six different concentration levels, ranging from 12.5 to 500 μg/mL. All assessments were performed in duplicate.
# Daphnia magna Straus = experiment: Daphnia magna toxicity assay; assay type: in vivo; conditions: 48 h
# Method: as §1
# [2] = system: Triticum vulgare root tips; experiment: Microscopic examination of Triticum root tips (mitotic film changes); assay type: in vivo; conditions: 1000 μM, 24 h contact
# Method: Microscopic examination of Triticum vulgare root tips followed the mitotic film changes induced by the tested compounds. Observations were made after 24 h of contact of the caryopses with the test solutions. The study was made in comparison with DMSO control maintained under the same conditions as the samples. To obtain microscopic preparations, sectioning of wheat embryonic roots was carried out at about 5 mm from the tip and stained with dilute […] according to the La Cour procedure. The examination was conducted on a Euromex oxion series 110–240 V/50–60 Hz microscope with digital camera CEMEX 5 DC 5000 C and 40× and 100× lenses with cedar oil immersion (Sigma-Aldrich St. Louis, MO, USA).
# [3] = system: LoVo colon adenocarcinoma cells; experiment: MTS cytotoxicity assay, LoVo; assay type: cell-based, human; conditions: Homo sapiens
# Method: (§2) Therefore, the precursor acids 2a–c and corresponding pyrrolo[1,2-b]pyridazines 5a–c,f were tested for their potential cytotoxic activity. During the assays, increasing concentrations of the compounds, ranging from […], were added for 24 h or 48 h to cancer LoVo, SK-OV-3, MCF-7, and the reference HUVEC cells, previously cultured for 24 h in 96-well flat bottom plates. […] Then, MTS reagent was added, and cells were incubated for 4 h at 37 °C in a 5% CO2 humidified atmosphere. The absorbance values were spectrophotometrically read to a Dynex ELISA reader at λ = […].
# (§3) For the evaluation of the in vitro potential anti-proliferative effects of treatments with the new compounds under study against solid tumor-derived cells, several compound-mediated cytotoxicity assays were performed on three adherent tumor standardized cell lines, and normal human endothelial cells, used as control: the MCF-7 human breast adenocarcinoma and SK-OV-3 human ovary adenocarcinoma cell lines were provided from European Collection of Authenticated Cell Cultures (ECACC), while LoVo, human colorectal adenocarcinoma cell line, and HUVEC human umbilical vein endothelial cells were purchased from American Type Culture Collection (ATCC).
# (§4) Adherent cells were cultivated in DMEM/F12 medium added with 2 mM L-glutamine and 10% fetal bovine serum, 100 units/mL penicillin, 100 µg/mL streptomycin (Sigma Aldrich, St. Louis, MO, USA) and incubated at 37 °C in 5% CO2 humidified atmosphere. The stock solutions for cell treatments were prepared by dissolving the synthesized compounds in a minimum amount of DMSO. Working dilutions were prepared from the stock solutions in culture medium before each treatment assay. After 24 h, when cell cultures achieved around 70% confluence, treatments were applied for various periods of time with different concentrations of synthesized compounds or oncolytic drugs, used as positive controls.
# (§5) Therefore, cell cultures treated with the new compounds or oncolytic drugs for 24 h or 48 h were further subjected to a colorimetric cell viability method, the MTS assay. The absorbance of probes was read, data were calculated, and percentages of cell viability were assessed.
# (§6) The evaluation of the compound-induced cytotoxicity was made using the CellTiter 96 Aqueous One Solution Cell Proliferation Assay (Promega, Madison, WI, USA), a reagent that contains both MTS (3-(4,5-dimethylthiazol-2-yl)-5-(3-carboxymethoxyphenyl)-2-(4-sulfophenyl)-2H-tetrazolium, inner salt) and PES ([…], a cationic dye with high chemical stability that binds to MTS and forms a stable solution).
# (§7) Briefly, 1.5 × 10^4 cancer or normal cells were cultured in 100 µL/well for 24 h. After the culture supernatants were discarded, cells were treated for additional 24 h or 48 h with increasing concentrations of new compounds or oncolytic drugs. Following the specific treatments, in each well a volume of 20 µL of coloring mixture reagent of MTS and PES was added, and then the plates were incubated with mild agitation every 20 min for 4 h at 37 °C. The color developed during incubation was spectrophotometrically quantified at λ = 492 nm using a Dynex ELISA reader (DYNEX Technologies—MRS, Chantilly, VA, USA).
# (§8) Data were expressed as percentages of cell viability of the treated cells, and were calculated and compared to the untreated cells (considered 100% viable), using the formula:Cell viability (%) = (T − B)/(U − B) × 100 where T = absorbance of treated cells, U = absorbance of untreated cells, and B = absorbance of culture medium (blank), for λ = 492 nm.
# (§9) The cell viability data were expressed as the mean values ± standard deviations (SD) of three different experiments (n = 3). […] Moreover, a parallel experiment was performed in the absence of cells, with all the concentrations of the compounds being tested for their potential interference with MTS reagents; then, their absorbance values were extracted during calculations.
# [4] = system: SK-OV-3 ovary adenocarcinoma cells; experiment: MTS cytotoxicity assay, SK-OV-3; assay type: cell-based; conditions: Homo sapiens; SK-OV-3, 400 μM, 24 h; read-out: cell viability
# [5] = system: LoVo colon adenocarcinoma cells; experiment: MTS cytotoxicity assay, LoVo; assay type: cell-based; conditions: Homo sapiens, 400 μM, read-out: cell viability
# [6] = system: MCF-7 breast adenocarcinoma cells; experiment: MTS cytotoxicity assay, MCF-7; assay type: cell-based, human
# Method: as §2, §3, §4, §5
# as §6, with “solution). The assay is based on the ability of the metabolically active cells to reduce the yellow tetrazolium salt MTS to a compound that is soluble in culture medium, the colored formazan, followed by the spectrophotometric evaluation of its concentration.” for “solution).”
# as §7, §8
# The cell viability data were expressed as the mean values ± standard deviations (SD) of three different experiments (n = 3). […]
# [7] = system: SK-OV-3 ovary adenocarcinoma cells; experiment: MTS cytotoxicity assay, SK-OV-3; assay type: cell-based, human; conditions: Homo sapiens
# Method: as §2, §3, §4, §5, §6, §7, §8, §9
smiles,measurement,setting,value
"CCOC(=O)c1cc(CC)n2nc(-c3ccc(F)cc3)ccc12 [Compound 5e, Ethyl 7-ethyl-2-(4-fluorophenyl)pyrrolo[1,2-b]pyridazine-5-carboxylate]",LC50 at 48 h,[1],675 µM
same,toxicity on Daphnia magna,Daphnia magna Straus,moderate toxicity
same,mitotic film / cell changes in root tips,[2],undulated cell walls and modified shaped nuclei; also recorded: mitoinhibition
same,IC50,"[3]; 24 h, read-out: IC50 LoVo 24 h",≥ 400 µM
same,IC50,"[3]; 48 h, read-out: IC50 LoVo 48 h",≥ 400 µM
same,viability at 400 µM,[4],87.5%
same,viability at 400 µM,[5]; 24 h,82.2%
same,viability at 400 µM,[5]; 48 h,67.4%
same,viability at 400 µM,"[6]; Homo sapiens, MCF7, MCF-7, 400 μM, 48 h, read-out: cell viability",73.1%
same,IC50,"[6]; Homo sapiens, MCF7, MCF-7, 24 h, read-out: IC50 MCF-7 24 h",≥ 400 µM
same,IC50,"[6]; Homo sapiens, MCF7, MCF-7, 48 h, read-out: IC50 MCF-7 48 h",≥ 400 µM
same,cell viability,"[6]; MCF-7, 100–400 μM, 48 h",less than 90%
same,IC50,"[7]; SK-OV-3, 24 h, read-out: IC50 Sk-OV-3 24 h",≥ 400 µM
same,IC50,"[7]; SK-OV-3, 48 h, read-out: IC50 Sk-OV-3 48 h",≥ 400 µM
